Experimental findings from patent US12186397B2, “Adhesive cell tissue gels” (National Cheng Kung University, priority 2011, dated 2025) are described below.

Each structure is given as a SMILES string. Entries after “also recorded” stand apart in the source; their conditions may differ. Like-named read-outs stand apart in the source and are kept apart here.

The test system of one data set is NIH3T3 fibroblast cells. Kind of data set: Toxicity of collagen gels with crosslinking agents (Example 3). The data set is classed as cell-based. The note with it: for relative toxicity among the three crosslinking agents: collagen gels. On the procedure:
Gels were prepared from collagen with glutaraldehyde, EX-810, and genipin at 5 mN, 1 mN, 0.5 mN, and 0.1 mN, respectively. Out of the three crosslinking agents, glutaraldehyde was the most toxic and genipin was the least toxic. Normality was used to indicate the numbers of reactive groups in the crosslinking agents. NIH3T3 fibroblast cells were cultured with the gels and a culture medium in a 96-well plate at 4×10^4 cells per well. Cell viability was observed.

In data set [1] the test system is Fibroblasts. In words: Viability of cells in contact with crosslinking agents or gels with quenching agents (Example 2). The data set is classed as cell-based. As for the experimental part: Gels containing various ratios of reactive groups in crosslinking agents to those in the matrix molecules with quenching agents were prepared as indicated in Table 2. Normality was used to indicate the number of reactive groups in the crosslinking agents, the number of functional groups in the matrix molecules, or the number of moieties in the quenching agents. Live cells were seeded and added to the gels, and cell viability was observed. Crosslinking agents were divided into two groups: highly toxic and less toxic. Glutaraldehyde was one of the highly toxic crosslinking agents and epoxide and genipin were the less toxic crosslinking agents. The quenching agents tested were poly-L-lysine and γ-polyglutamic acid.
The above results were summarized from various sets of experiments. Specifically, final concentrations of 0.1 mN, 0.5 mN, 1 mN, and 5 mN of glutaraldehyde were tested alone or added to a gelatin or collagen solution in the presence of poly-L-Lysine as a quenching reagent.

The test system of data set [2] is Fibroblasts.
Protocol: The cytotoxic effect of the adhesive was evaluated by applying 10 μL of the adhesive to the center of a well of a 24-well plate. Fibroblasts (2.0×10^4 cell/well) were seeded and incubated at 37° C. with 5% CO2 for 38 hours. The number of viable cells was quantified by a hemacytometer.

With `O=CCCCC=O` [glutaraldehyde], the “cells adhered to the gel” value in the data set with NIH3T3 fibroblast cells (collagen gel, 0.1 mN crosslinker) was 20%. Further, in the data set with NIH3T3 fibroblast cells (collagen gel, 0.5 mN crosslinker, 24 hours of culturing), the cell viability result is “most cells died”. Moreover, the “relative toxicity among the three crosslinking agents” value in the data set on NIH3T3 fibroblast cells is listed as “most toxic”. Besides, in the data set with Fibroblasts [1], the “Viability of cells (alive)” value is listed as 100%; the “cell viability in gel” value was “most adjacent cells died”; the “fibroblast viability in gel” value was “survived and proliferated like the control groups”. In the data set on Fibroblasts [1] (24 h, 0.1 mN), the “Viability of cells (alive)” value was approximately 20% and the cells survived result was “about 20%”.

Consider `COC(=O)C1=CO[C@@H](O)[C@@H]2C(CO)=CC[C@H]12` [genipin], for which, in the data set with NIH3T3 fibroblast cells (collagen gel, 1 mN crosslinker), the cell proliferation result is given as “no cell proliferation”. For the same compound, the cells survived entry in the data set with NIH3T3 fibroblast cells (collagen gel, 1 mN crosslinker) is on record as “over 80%”. In addition, the cell viability entry with NIH3T3 fibroblast cells (collagen gel, 5 mN crosslinker) was “all cells died”. In addition, the “relative toxicity among the three crosslinking agents” value with NIH3T3 fibroblast cells is given as “least toxic”. For the same compound, the “cytotoxicity of the adhesive” value with Fibroblasts [2] is recorded as “increased with elevated concentration of genipin”. In the data set with Fibroblasts [1] (5 mN crosslinker and total 5 mN collagen and poly-L-lysine), the “fibroblast viability in gel” value is reported as “some fibroblasts died; also recorded: most fibroblasts survived in the distal area”. Also, the Viability of cells result is given as “Some” in the data set with Fibroblasts [1] (Normality ratio 1:1 of reactive groups in crosslinking agent to functional groups in matrix molecules and quenching agents); “All die” in the data set on Fibroblasts [1] (Normality ratio 5:1 of reactive groups in crosslinking agent to functional groups in matrix molecules and quenching agents); “All die” with Fibroblasts [1] (crosslinking agent only, ≥5 mN). In addition, the “Viability of cells (alive)” value was 100% in the data set with Fibroblasts [1] (Normality ratio 1:5); 100% in the data set on Fibroblasts [1] (Normality ratio 1:10); 100% in the data set with Fibroblasts [1] (Normality ratio 1:50); not below 80% in the data set on Fibroblasts [1] (crosslinking agent only, 1 mN).
